Reference: patent EP4303307A1, “METHOD FOR PRODUCING FLAVOURS USING O-METHYLTRANSFERASE FROM PLEUROTUS” (Justus-Liebig-Universität Gießen Rechtsabteilung, priority 2022, dated 2024)

Assays:
Type in all cases: biochemical, P. sapidus
[1] = test system: O-Methyltransferase; experiment: Enzymatic conversion of the thiol substrate, product detected by GC-MS; conditions: compared with blanks (chemical and chemical-biological)
From the text: Durch die Umsetzung von 2-Methyl-3-furanthiol als Substrat mit O-Methyltransferase wird beispielhaft das breite, Substanzklassen-übergreifende, Substratspektrum der O-Methyltransferase gezeigt. Neben den unter 6. aufgeführten Substraten werden beispielhaft auch Umsetzungen unter Verwendung von 2-Methyl-3-furanthiol durchgeführt.

[2] = test system: O-Methyltransferase; experiment: Determination of enzyme kinetic parameters (Michaelis-Menten, non-linear regression)
From the text: Bekanntermaßen werden Biokatalysatoren, bzw. Enzyme wie O-Methyltransferasen, auch durch die Bestimmung ihrer jeweiligen enzymkinetischen Parameter unter definierten Bedingungen charakterisiert. Daher werden anhand eines Beispiels auch die enzymkinetischen Parameter der O-Methyltransferase bestimmt. Die Versuchsergebnisse sind in Tabelle 1 zusammengestellt. Mit dem Substrat, gegenüber dem die beispielhaft untersuchte O-Methyltransferase die höchste Aktivität aufweist, sowie dem Cofaktor werden die enzymkinetischen Parameter (Km, vmax) graphisch nach nichtlinearer Regression (Michaelis-Menten, Softwarepaket OriginPro 2020) ermittelt (vgl. Fig. 8, Fig. 8A, Fig. 8B). Zudem wird beispielhaft die katalytische Konstante (kcat) sowie die katalytische Effizienz (kcat/Km) berechnet. Die resultierenden Werte sind zusammengefasst in Tabelle 1 aufgeführt. Tabelle 1: Enzymkinetische Parameter der aus P. sapidus abgeleiteten O-Methyltransferase unter Verwendung von p-Hydroxybenzaldehyd als Substrat
Fig. 1: Korrelation der Anzahl der Transkriptionskopien und der Peakflächen (normiert auf internen Standard) von p-Anisaldehyd der DK5 und MK57 Kulturen. Fig. 2: SDS-PAGE-Gel der O-Methyltransferase (L: Lysat von E. coli, P: Protein nach Reinigung mittels FPLC) und Western Blot Membran (Anti-His-Tag Antikörper). Fig. 3: Beispielhafte Umsetzung von p-Hydroxybenzaldehyd (500 µM) und SAM (500 µM) mittels O-Methyltransferase (0,16 µM) in Davies Puffer über 2 h (jeweils im Triplikat) zur Ermittlung des pH-Optimums; bei den für die Ordinatenachse gewählten willkürlichen Einheiten handelt es sich um die gerätetypische Quantifizierung der Peakfläche von p-Anisaldehyd im Chromatogramm der jeweiligen Probe aus der betreffenden Reaktionslösung nach Abschluss der Umsetzung. Fig. 4: Beispielhafte Umsetzung von p-Hydroxybenzaldehyd (500 µM) und SAM (500 µM) mittels O-Methyltransferase (0,16 µM) in 0,1 M Phosphatpuffer über 2 h bei 24 °C (jeweils im Triplikat) zur weiteren Ermittlung des pHOptimums. […]

[3] = test system: O-Methyltransferase; experiment: Enzymatic methylation of further substrates, conversion rates (Table 2); conditions: 34 °C, 500 µM educt, phosphate buffer pH 7,4 (100 mM), 24 h, without shaking; for Produktkonzentration: concentration of the methylated product
Description: In Tabelle 2 sind die Umsetzungsraten weiterer Ausführungsbeispiele zusammengestellt, wobei die Reaktionsbedingungen für die Umsetzungen in Tabelle 2 beispielhaft wie folgt ausgewählt wurden: Temperatur 34 °C, jeweils 500 µM Edukt- und Produktkonzentration, Phosphatpuffer pH = 7,4 (100 mM), Reaktionsdauer: 24 h, Durchführung jeweils ohne Schütteln). Tabelle 2: Weitere beispielhaft ausgewählte Umsatzraten

With `Cc1occc1S` [2-Methyl-3-furanthiol] the “Bildung des methylierten Produktes” value [1] was “gesteigerte Bildung des methylierten Produktes”.
For `O=Cc1ccc(O)cc1` [p-Hydroxybenzaldehyd], the “katalytische Konstante (kcat)” value ([2]; calculated, p-Hydroxybenzaldehyd as substrate) was 2,5 s^-1, the “mittlere maximale Geschwindigkeit (vmax)” value ([2]; substrate with SAM (500 µM), enzyme 0,16 µM, 0,1 M phosphate buffer pH 7,4, 34 °C, 20 min) was 43,7 mU mg^-1 and the Km ([2]; substrate with SAM (500 µM), enzyme 0,16 µM, 0,1 M phosphate buffer pH 7,4, 34 °C, 20 min, read-out: mittlere Michaelis-Menten-Konstante (Km)) was 79 µM.
For `COc1cc(C=O)ccc1O` [Vanillin], the Umsetzungsrate [3] was 5% and the Produktkonzentration [3] was 23,8 ± 0,9 µM.
`O=c1ccc2cc(O)ccc2o1` [6-Hydroxycoumarin] was tested, and the Umsetzungsrate [3] was 2% and the Produktkonzentration [3] was 11,5 ± 0,3 µM.
